Measurements as given in patent US5714508A, “Bicycle Derivatives of imidazole” (Roussel Uclaf, priority 1993, dated 1998).

Columns and labels:
angiotensin II = experiment: Test of the antagonistic activity of angiotensin II in a demedullated rat (diastolic arterial pressure); type: in vivo, Male Sprague Dawley rats; settings: iv, venous route, injected 5 minutes before angiotensin II (0.75 micrograms/kg), pressure effects, read-out: 50% Inhibitory Doses
Method: 2--Test of the antagonistic activity of angiotensin II in a demedullated rat
Male Sprague Dawley rats weighing 250 to 350 g were anaesthetized by an intraperitoneal injection of sodium pentobarbital (60 mg/kg). The diastolic arterial pressure was recorded with a heparinated catheter (PE50) introduced into the left carotid of the animal and connected to a pressure processor (Gould, Pressure Processor) via a Gould pressure sensor. A catheter was introduced into the right jugular of the animal for the injection of the molecules to be studied. The animal was placed under assisted respiration and a bilateral section of the vagus nerves was carried out. The rat was then demedullated.
After a sufficient period of stabilization, study of the antagonism of the compound vis-a-vis angiotensin II (Hypertensin Ciba) was started in the following way.
1--Three consecutive injections of angiotensin II (0.75 micrograms/kg) spaced 15 minutes apart which allowed a reproducible and stable pressure response to be obtained. […]
The pressure effects of the angiotensin II in the presence of the antagonist were expressed as a percentage of the pressure effects of the angiotensin II administered alone. The 50% inhibitory dose of the studied effect was thus determined. […]

angiotensin II receptor = molecular target: T1, angiotensin II receptor (Rattus norvegicus, UniProt P25095); experiment: Test on the angiotensin II receptor (displacement of 125I angiotensin II from rat liver membranes); type: binding; settings: rat liver membrane preparation, 25° C., 150 minutes, Tris buffer pH 7.4, read-out: IC50 in Nanomoles
T1 construct: A fresh membrane preparation obtained from rat's liver was used; from tissue; host or cells: rat liver membranes
T1 sequence (P25095 1-359): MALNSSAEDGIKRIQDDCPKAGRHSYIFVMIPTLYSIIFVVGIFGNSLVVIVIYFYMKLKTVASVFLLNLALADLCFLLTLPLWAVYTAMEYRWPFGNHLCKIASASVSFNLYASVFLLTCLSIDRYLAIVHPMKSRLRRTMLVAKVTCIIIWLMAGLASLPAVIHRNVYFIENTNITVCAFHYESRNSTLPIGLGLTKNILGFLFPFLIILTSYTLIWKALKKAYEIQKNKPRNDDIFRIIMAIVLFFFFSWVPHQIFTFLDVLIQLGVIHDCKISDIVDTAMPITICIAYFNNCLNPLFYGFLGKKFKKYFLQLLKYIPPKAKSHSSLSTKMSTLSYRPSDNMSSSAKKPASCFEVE
Method: 1--Test on the angiotensin II receptor
A fresh membrane preparation obtained from rat's liver was used and the tissue was ground up in a polytron in a 50 mM Tris buffer pH 7.4. The grinding process was followed by 3 centrifugations at 30,000 g for 15 minutes with intermediate taking up of the pellets in the Tris buffer pH 7.4. The last pellets were suspended in an incubation buffer (20 mM Tris, 135 mM NaCl, 10 mM KCl, 5 mM glucose, 10 mM MgCl2, 0.3 mM PMSF, 0.1 mM bacitracin, 0.2% BSA. 2 ml aliquoted fractions were distributed in hemolysis tubes and 125I angiotensin II (25,000 DPM/tube) and the product under test were added. The product was first tested at 3×10^-5 M three times. When the product tested displaced more than 50% of the radioactivity linked specifically to the receptor, it was tested again in a range of 7 concentrations to determine the concentration which inhibited 50% of the radioactivity linked specifically to the receptor. In this way, the 50% inhibiting concentration was determined.
The non-specific bond was determined by the addition of a product of Example 94 of European Patent No. 0,253,310 at 10^-5 M (three times). After incubation at 25° C. for 150 minutes, the suspension was put in a water-bath at 0° C. for 5 minutes, filtered under vacuum, rinsed with a Tris pH 7.4 buffer and the radioactivity was counted in the presence of scintillating Triton. The result was expressed directly as a 50% inhibiting concentration (IC50), that is to say the concentration of product studied, expressed in […], necessary to displace 50% of the specific radioactivity fixed to the receptor studied.

Compound	ED50 (angiotensin II)	IC50 (angiotensin II receptor)
CCCCc1nc2c(n1Cc1ccc(-c3ccccc3S(=O)(=O)NC(=O)NCCC)cc1)C(=O)CCS2 [Example 3, 4'-[(2-butyl-6,7-dihydro-7-oxo-thiopyrano-(2,3-d)imidazol-1-(5H)-yl)-methyl]-N-[(propylamino)-carbonyl]-(1,1,'-biphenyl)-2-sulfonamide]	0.08 mg/kg	1.3 nM
CCCCc1nc2c(n1Cc1ccc(-c3ccccc3S(=O)(=O)NC(=O)NCCC)cc1)C(=NO)CCS2 [Example 7, 4'-[(2-butyl-7-(hydroxyimino)-1,5,6,7-tetrahydro-thiopyrano[2,3-d)-imidazol-1-yl)-methyl]-N-[(propylamino)-carbonyl]-(1,1'-biphenyl)-2-sulfonamide]	–	5.3 nM
CCCCc1nc2c(n1Cc1ccc(-c3ccccc3S(=O)(=O)NC(=O)OCC)cc1)C(=O)CCS2 [Example 4]	0.09 mg/kg	0.2 nM
